Laboratory results reported in patent US6906097B2, “8-azaprostaglandin analogs as agents for lowering intraocular pressure” (Allergan, Inc., priority 2002, dated 2005).

Experiments:
hEP3A = molecular target: T1, hEP3A (Homo sapiens, UniProt P43115); assay: Functional data, human recombinant EP3A receptor stable transfectants; assay type: cell-based
T1 construct: expressed in transfected cells
T1 sequence (P43115 1-390): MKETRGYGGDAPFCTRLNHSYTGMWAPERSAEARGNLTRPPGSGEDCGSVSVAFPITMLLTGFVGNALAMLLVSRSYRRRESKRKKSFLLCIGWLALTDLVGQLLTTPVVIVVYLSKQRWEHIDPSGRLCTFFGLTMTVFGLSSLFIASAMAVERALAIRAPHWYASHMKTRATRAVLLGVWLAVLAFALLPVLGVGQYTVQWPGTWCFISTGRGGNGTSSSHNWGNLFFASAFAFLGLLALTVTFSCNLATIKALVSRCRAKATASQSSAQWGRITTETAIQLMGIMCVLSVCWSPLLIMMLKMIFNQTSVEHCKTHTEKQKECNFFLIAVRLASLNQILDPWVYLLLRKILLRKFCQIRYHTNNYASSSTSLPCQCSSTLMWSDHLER
Method: (§1) Human Recombinant EP1, EP2, EP3, EP4, FP, TP, IP and DP Receptors: Stable Transfectants
(§2) Plasmids encoding the human EP1, EP2, EP3, EP4, FP, TP, IP and DP receptors were prepared by cloning the respective coding sequences into the eukaryotic expression vector pCEP4 (Invitrogen). The pCEP4 vector contains an Epstein Barr virus (EBV) origin of replication, which permits episomal replication in primate cell lines expressing EBV nuclear antigen (EBNA-1). It also contains a hygromycin resistance gene that is used for eukaryotic selection. […] HEK-293 cells were grown in DMEM with 10% fetal bovine serum (FBS), 250 μg ml^−1 G418 (Life Technologies) and 200 μg ml^−1 gentamicin or penicillin/streptomycin.
(§3) For transfection, the cells were grown to 50-60% confluency on 10 cm plates. The plasmid pCEP4 incorporating cDNA inserts for the respective human prostanoid receptor (20 μg) was added to 500 μl of 250 mM CaCl2. […] After 30 min, 9 ml DMEM were added to the mixture. The DNA/DMEM/calcium phosphate mixture was then added to the cells, which had been previously rinsed with 10 ml PBS. The cells were then incubated for 5 hr at 37° C. in humidified 95% air/5% CO2. The calcium phosphate solution was then removed and the cells were treated with 10% glycerol in DMEM for 2 min. The glycerol solution was then replaced by DMEM with 10% FBS. The cells were incubated overnight and the medium was replaced by DMEM/10% FBS containing 250 μg ml^−1 G418 and penicillin/streptomycin. The following day hygromycin B was added to a final concentration of 200 μg ml^−1.
(§4) Ten days after transfection, hygromycin B resistant clones were individually selected and transferred to a separate well on a 24 well plate. At confluence each clone was transferred to one well of a 6 well plate, and then expanded in a 10 cm dish. Cells were maintained under continuous hygromycin selection until use.

hEP4 = molecular target: T2, hEP4 (Homo sapiens, UniProt P35408); assay: Functional data, human recombinant EP4 receptor stable transfectants; assay type: cell-based
T2 construct: expressed in transfected cells
Method: as §1, §2, §3, §4

hEP3D = molecular target: T3, hEP3D (Homo sapiens, UniProt P43115); assay: Radioligand binding, hEP3D; conditions: [3H]PGE2 competition
T3 construct: expressed in transfected cells; host or cells: COS-7, transient transfection, plasma membrane fraction
T3 sequence (P43115 1-374 isoform P43115-4): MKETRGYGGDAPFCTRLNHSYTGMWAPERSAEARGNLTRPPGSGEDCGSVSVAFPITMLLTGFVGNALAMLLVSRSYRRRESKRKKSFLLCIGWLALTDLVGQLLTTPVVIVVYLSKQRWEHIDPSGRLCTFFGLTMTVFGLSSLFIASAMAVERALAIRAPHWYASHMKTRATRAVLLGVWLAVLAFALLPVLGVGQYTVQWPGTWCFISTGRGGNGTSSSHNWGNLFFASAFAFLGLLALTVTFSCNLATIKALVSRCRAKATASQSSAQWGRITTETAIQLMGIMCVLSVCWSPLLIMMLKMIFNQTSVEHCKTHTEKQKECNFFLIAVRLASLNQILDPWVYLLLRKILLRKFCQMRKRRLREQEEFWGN
Method: For radioligand binding on the transient transfectants, plasma membrane fraction preparation was as follows. COS-7 cells were washed with TME buffer, scraped from the bottom of the flasks, and homogenized for 30 sec using a Brinkman PT 10/35 polytron. TME buffer was added to achieve a final 40 ml volume in the centrifuge tubes. The composition of TME is […]; 10N HCl is added to achieve a pH of 7.4.
The cell homogenate was centrifuged at 19000 rpm for 20 min at 4° C. using a Beckman Ti-60 rotor. The resultant pellet was resuspended in TME buffer to give a final 1 mg/ml protein concentration, as determined by Biorad assay. Radioligand binding assays were performed in a 200 μl volume.
The binding of [^3H] PGE2 (specific activity 165 […]) at EP3D, receptors and [^3H]-SQ29548 (specific activity 41.5 Ci mmol^−1) at TP receptors were determined in duplicate in at least three separate experiments. Radiolabeled PGE2 was purchased from Amersham, radiolabeled SQ29548 was purchased from New England Nuclear. […] Competition studies were performed using a final concentration of 2.5 or 5 nM [^3H]-PGE2, or 10 nM [^3H]-SQ 29548 and non-specific binding determined with 10 μM of the respective unlabeled prostanoid. […]

T2 sequence (P35408 whole entry): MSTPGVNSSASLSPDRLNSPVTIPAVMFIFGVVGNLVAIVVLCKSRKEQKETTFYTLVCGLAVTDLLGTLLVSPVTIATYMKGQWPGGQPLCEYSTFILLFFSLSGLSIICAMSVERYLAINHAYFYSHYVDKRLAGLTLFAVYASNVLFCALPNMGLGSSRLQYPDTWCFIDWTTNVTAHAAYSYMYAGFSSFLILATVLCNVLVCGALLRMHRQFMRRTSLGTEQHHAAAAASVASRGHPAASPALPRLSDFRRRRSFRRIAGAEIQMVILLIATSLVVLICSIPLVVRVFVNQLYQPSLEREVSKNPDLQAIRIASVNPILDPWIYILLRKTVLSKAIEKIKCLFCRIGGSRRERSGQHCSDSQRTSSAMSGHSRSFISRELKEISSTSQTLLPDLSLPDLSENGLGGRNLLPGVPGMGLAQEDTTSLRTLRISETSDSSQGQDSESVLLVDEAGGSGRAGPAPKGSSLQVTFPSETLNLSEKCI

## O=C(O)CCCCCCN1C(=O)CC[C@@H]1CCC(O)Cc1cccc(Cl)c1 (stereo partly drawn) [Example 1, 7-[2S-[3R-Hydroxy-4-(chloro-phenyl)-butyl]-5-oxo-pyrrolidin-1-yl]-heptanoic acid]
hEP3A
  EC50: 608 nM
hEP4
  EC50: 0.7 nM
hEP3D
  IC50: 12 nM
